In patent US6403623B1, “Heterocyclic antituberculosis agents” (Unuversity of Notre Dame du Lac, priority 1999, dated 2002):

System: M. tuberculosis H37R
Experiment: microbe, parasite or virus in culture
Format: cell-based
Settings: Mycobacterium tuberculosis, in vitro, concentration of 12.5 μg/mL, read-out: inhibition of the growth of M. tuberculosis H37R

Structure (SMILES): O=C(OCc1ccccc1)[C@@H]1COC(c2ccccc2OCc2ccccc2)=N1 [Example 1, (S)-Benzyl 2-[2-(Benzyloxy)phenyl]-2-oxazoline-4-carboxylate]
- inhibition at 12.5 µg/mL: 98%
